Data on four molecules can be found in patent US4764590A, “Des-19-leucine, 20-glutamine, 21-threonine-calcitonin” (Rorer Pharmaceutical Corporation, priority 1987, dated 1988).

For assay [1], the system named is serum calcium concentration. The experiment in a line: Biological assay of calcitonin analogs in vivo: reduction of serum calcium concentration, 2×2 parallel line assay. As to conditions: rats, subcutaneous injection, blood withdrawn 1 hour later, versus synthetic salmon calcitonin standard. The method, then: Biological Assay of Calcitonin Analogs in Vivo
The biological potency of des-19-leucine, 20-glutamine, 21-threonine-salmoncalcitonin was determined by comparing the reduction of serum calcium concentration which followed administration by graded doses of des-Leu^19, Gln^20, Thr^21 -SCT and synthetic salmon calcitonin standard. Rats were divided into four groups of seven animals, and each group was assigned at random to a dose of standard or test solution. Low and high doses were chosen from the linear portion of the dose-response curve. For the salmon calcitonin standard, the values were 0.7 and 2.1 ng. peptide/100 g. body weight (BW). This dose approximates 3 and 9 MU/100 g. BW. Peptides were given by subcutaneous injection (0.2 ml/100 g. BW) and blood was withdrawn 1 hour later for serum calcium determination. Sera are processed and analyzed within two hours of collection. […]. Results were analyzed by a 2×2 parallel line assay [Gaddum, J. H., J. Pharm. Pharmacol., 6, 345 (1953)]. The standard salmon calcitonin used was independently determined to contain greater than 4,000 IU/mg. des-Leu^19, Gln^20, Thr^21 -SCT assayed at 7100 IU/mg.

The conditions of assay [2]: Monikawa et al., Experientia 32(9), 1104-1106 (1976); cited from earlier work.
For assay [3], the system named is serum calcium concentration. As to conditions: standard used in the rat assay; cited from earlier work.

Where a SMILES comes first, the peptide text is derived from it.

As to `CC(C)C[C@H](NC(=O)[C@H](CCCCN)NC(=O)CNC(=O)[C@H](CC(C)C)NC(=O)[C@@H](NC(=O)[C@@H]1CSSC[C@H](N)C(=O)N[C@@H](CO)C(=O)N[C@@H](CC(N)=O)C(=O)N[C@@H](CC(C)C)C(=O)N[C@@H](CO)C(=O)N[C@@H]([C@@H](C)O)C(=O)N1)C(C)C)C(=O)N[C@@H](CO)C(=O)N[C@@H](CCC(N)=O)C(=O)N[C@@H](CCC(=O)O)C(=O)N[C@@H](CC(C)C)C(=O)N[C@@H](Cc1c[nH]cn1)C(=O)N[C@@H](CCCCN)C(=O)N[C@@H](Cc1ccc(O)cc1)C(=O)N1CCC[C@H]1C(=O)N[C@@H](CCCNC(=N)N)C(=O)N[C@H](C(=O)N[C@@H](CC(N)=O)C(=O)N[C@H](C(=O)NCC(=O)N[C@@H](CO)C(=O)NCC(=O)N[C@H](C(=O)N1CCC[C@H]1C(N)=O)[C@@H](C)O)[C@@H](C)O)[C@@H](C)O` [des-Leu^19, Gln^20, Thr^21 -SCT, des-19-leucine, 20-glutamine, 21-threonine-salmon calcitonin] (HELM PEPTIDE1{C.S.N.L.S.T.C.V.L.G.K.L.S.Q.E.L.H.K.Y.P.R.T.N.T.G.S.G.T.P.[am]}$PEPTIDE1,PEPTIDE1,1:R3-7:R3$$$V2.0), the “biological potency (reduction of serum calcium concentration)” value in assay [1] came to 7100 IU/mg.
Regarding “(1,7-alpha-L-amino-suberic acid) eel calcitonin”, the hypocalcemic potency entry in assay [2] was “about 3400 IU/mg”.
In the case of “Salmon calcitonin [standard salmon calcitonin]”, the “potency of the standard salmon calcitonin, independently determined” value in assay [3] was “greater than 4,000 IU/mg”.
Consider “eel calcitonin [synthetic eel calcitonin]”, for which the hypocalcemic potency result in assay [2] is recorded as “around 4300 IU/mg”.
